For this data set, the system named is mini pig skin. The experiment in a line: Cutaneous irritation (Draize, Primary Irritation Index) after SADBE dermal patch in Gottingen mini-pig. The data set is classed as in vivo, Gottingen miniswine. The following applies: for Primary Irritation Index (pII) / Primary Irritation Index (pII), transient peak: 0-8 scale; for Primary Irritation Index (pII), transient peak: after the second dose; for duration of moderate levels of irritation / time to return to non-irritating levels post-dermal-application: re-challenge; for duration of severe cutaneous irritation: re-challenge at naive site. The method, then:
A total of 6 Gottingen miniswine (3 female and 3 male) was used in this nonGLP study. Prior to dosing, the baseline body weights, group food consumption, and Draize scoring (see tables 1 and 2) for erythema and eschar formation and edema at the future dose site were recorded. A dermal patch (1 patch/animal) loaded with 20 microliters of 2, 6, or 18% SADBE drug solution was applied to animals, and left in place for ˜12 hours. Following the ˜12 hour dosing period, patch sites was assessed by Draize scoring as in Example 5, 5×/week for 21 days. […] After the 25 day assessment period, the animals were re-challenged and a second dosing and assessment phase performed for 30 days. At the end of the survival period, animals were humanely euthanized and a complete necropsy was performed. The test article vials used to prepare patches and mini-pig exposed patches were collected after application to determine SADBE content and SADBE degradation product squaric acid monobutyl ester (SAMBE) using HPLC at Squarex's Laboratory.
Cutaneous irritation at the test site was observed and scored each day of the study by the Draize Scale for both Erythema & Eschar and Edema. The scale for each is in Tables 9 and 10 in Example 5, each on a 0-4 scale. The cumulative Erythema & Eschar and Edema score was the Primary Irritation Index score, which would therefore be on a 0-8 scale.
The daily primary irritation index (pII) for each test article dose over the course of the study was calculated (FIG. 5). The pII is used to categorize the test article treatments as negligible to not irritating (0-0.9), slight (0.9-1.9), moderate (2-4.9) or severe (5-8) irritation potential.

As for `CCCCOc1c(OCCCC)c(=O)c1=O` [SADBE, squaric acid dibutyl ester], the “irritation category by Primary Irritation Index (pII)” value (2% SADBE, 20 microliters patch, ~12 hours, first dose) was “moderately irritating”; the “irritation category by Primary Irritation Index (pII)” value (2% SADBE, re-challenge (second dose)) is on record as “moderately-severely irritating”; the “irritation category by Primary Irritation Index (pII)” value (6% SADBE, 20 microliters patch, ~12 hours, first dose) is “moderately irritating”; the “irritation category by Primary Irritation Index (pII)” value (6% SADBE, re-challenge (second dose)) is given as “moderately-severely irritating”; the “irritation category by Primary Irritation Index (pII)” value (18% SADBE, 20 microliters patch, ~12 hours, first dose) was “moderately-severely irritating”; the “irritation category by Primary Irritation Index (pII)” value (18% SADBE, re-challenge (second dose)) is “severely irritating”. In addition, the “Primary Irritation Index (pII)” value (2% SADBE, after the first dose) is ~3.5; the “Primary Irritation Index (pII)” value (6% SADBE, after the first dose) is 3.0-4.0; the “Primary Irritation Index (pII)” value (18% SADBE, first dose) is recorded as ~5.0; the “Primary Irritation Index (pII)” value (18% SADBE, second dose) was ~6. Further, the “Primary Irritation Index (pII), transient peak” value by setting is: (2% SADBE) 5; (6% SADBE) 5.5. Further, the “duration of moderate cutaneous irritation” value is > 15 days (2% SADBE, induction) and ~21 days (6% SADBE, induction). In addition, the “duration of moderate levels of irritation” value runs as follows: (2% SADBE) ~17 days; (6% SADBE) ~19 days; (18% SADBE) ~24 days. The “time to return to non-irritating levels post-dermal-application” value (2% SADBE) is on record as ~22 days, the “time to return to non-irritating levels post-dermal-application” value (6% SADBE) is on record as ~22 days and the “time to return to non-irritating levels post-dermal-application” value (18% SADBE) is ~26 days. Moreover, the “duration of severe cutaneous irritation” value (2% SADBE) lay within 1 to 2 days, the “duration of severe cutaneous irritation” value (6% SADBE) was 1 days and the “duration of severe cutaneous irritation” value (18% SADBE) is ~5 days. For the same molecule, the “duration of moderate-severe cutaneous irritation” value (18% SADBE, induction) is on record as ~22 days.

Values taken from patent US20210393932A1, “DERMAL PATCHES AND GLASS SWABS FOR APPLICATION OF TOPICAL IMMUNOSENSITIZERS” (Squarex, LLC, priority 2020, published 2021).
